What was measured:
VAV1 [1] = assay: VAV1 Y174 phosphorylation (Western blot) in Jurkat cells expressing G17V RHOA mutant, anti-CD3 stimulation; type: cell-based, human; settings: dasatinib 0 to 10 nM, 30 minutes, FIG. 7(A)
Description: (§1) (1) Jurkat cells (T-cell leukemia cell line) engineered with a lentivirus-mediated Tet-On system to express wild-type RHOA cDNA or a RHOA coding region modified to comprise a G to T substitution at position 50 of the coding region (hereinafter referred to as G17V RHOA cDNA) were seeded in RPMI (10% FCS, 1% PS) at 2×10^5 cells/mL in 15 cm petri dishes in triplicate. Doxycycline was added to give a final concentration of 2 μg/mL. On the following day, the cells were collected and centrifuged, and then seeded in RPMI (serum-free) at 6×10^5 cells/mL in 15 cm petri dishes in triplicate. After 4 hours, the cells were collected and washed once with sterile phosphate buffered saline (PBS), and then adjusted to 2×10^4 cells/ml and transferred to 15 ml tubes, followed by incubation at 37° C. for 5 minutes. LEAF™ purified anti-human CD3 Ab (BioLegend) and anti-mouse IgG antibody Ab (at 2 μg/ml each) were added. The cells were incubated at 37° C. for 5 minutes or 30 minutes. Cold PBS (10 ml) was added to each tube, followed by centrifugation to remove the supernatants. Lysis buffer (supplemented in advance with complete protease inhibitor and PhosSTOP) was added in a volume of 1000 μl/tube. The tubes were incubated on ice for 20 minutes and centrifuged to collect the supernatants. Laemuli's buffer and DTT were added, followed by incubation at 95° C. for 5 minutes. […]

PLC-gamma 1 = PLC-gamma 1 phosphorylation (Western blot) in Jurkat cells expressing G17V RHOA mutant; type: cell-based, human; settings: dasatinib 0 to 10 nM, 30 minutes, FIG. 7(B)
Description: as §1

[2] = tested on: interleukin-2 mRNA expression; assay: Interleukin-2 mRNA expression in Jurkat cells expressing G17V RHOA mutant, CD3/CD28 bead stimulation; type: cell-based, human; settings: dasatinib 0 to 10 nM, CD3/CD28 beads, 3 hours, FIG. 8
Description: Dynabeads T-activator CD3/CD28 (Veritas) were mixed with buffer (PBS supplemented with 0.1% BSA+2 mM EDTA, pH 7.4) and allowed to stand on a magnetic rack to remove the supernatant.
Jurkat cells engineered with a lentivirus-mediated Tet-On system to express wild-type or G17V RHOA cDNA were seeded in RPMI (10% FCS, 1% PS) at 2×10^5 cells/mL in 15 cm petri dishes in triplicate. Doxycycline was added to give a final concentration of 2 μg/mL. On the following day, the cells were collected and seeded in a 24-well plate. The Dynabeads T-activator CD3/CD28 (Veritas) washed above were added. After 3 and 6 hours, the cells were collected. The cells were washed once with PBS and their RNA was extracted with an RNeasy Mini Kit (Qiagen). […] IL-2 mRNA was measured with the primer/probe sets of Taqman Gene Expression Assays (Thermo Fisher Scientific). rRNA was measured with TaqMan® Ribosomal RNA Control Reagents (Thermo Fisher Scientific) and used for correction.
Jurkat cells engineered with a lentivirus-mediated Tet-On system to express wild-type RHOA or G17V RHOA cDNA were seeded in RPMI (10% FCS, 1% PS) at 2×10^5 cells/mL in 15 cm petri dishes in triplicate. […] IL-2 mRNA was measured with the primer/probe sets of Taqman Gene Expression Assays (Thermo Fisher Scientific). rRNA was measured with TaqMan® Ribosomal RNA Control Reagents (Thermo Fisher Scientific) and used for correction.

VAV1 [3] = assay: VAV1 Y174 phosphorylation in Jurkat cells expressing VAV1 mutant, anti-CD3 stimulation; type: cell-based, human; settings: dasatinib 0 to 10 nM, 30 minutes, FIG. 15
NFAT activity = assay: NFAT luciferase reporter activity in Jurkat cells expressing VAV1 mutant; type: cell-based, human; settings: dasatinib 0 to 10 nM, 30 minutes, anti-CD3 stimulation, FIG. 16
Description: In accordance with the protocol of Dual Luciferase Reporter Assay (Promega), firefly luciferase activity and renilla luciferase activity were each measured, and the value of firefly luciferase was divided by the value of renilla luciferase to correct the transfection efficiency. In more detail, the cells were mixed with Passive Lysis Buffer (PLB) in a volume of 100 μl/tube, followed by freezing at −80° C. to lyse the cells. After centrifugation, the supernatants were collected. In a 96-well plate. LARII was dispensed in a volume of 100 μl/well. 20 μl of each cell lysate was added. The plate was mounted on a luminometer and Stop & Glo® Reagent was added in 100 μL volumes, followed by measurement again with the luminometer.
In a 96-well flat-bottomed plate, LEAF™ purified anti-human CD3 Ab (BioLegend) adjusted to 10 μg/ml with PBS was dispensed in a volume of 50 μL/well and incubated overnight at 4° C. After removal of the antibody solution, each well was washed three times with sterile PBS.
Jurkat cells were seeded at 5×10^4 cells/well in a 24-well plate. […] After 30 minutes, the cells were collected and then stimulated with LEAF™ purified anti-human CD3 Ab (BioLegend) and measured for firefly luciferase activity and renilla luciferase activity by reference to Example 3 described above, etc.

[4] = tested on: angioimmunoblastic T-cell lymphoma (AITL) model mice; assay: AITL therapeutic transplant model: nude mice injected with donor mouse swollen lymph node-derived cells; type: in vivo
Description: An AITL model is regarded as having been established, but a long incubation period is required to observe oncogenesis after pIpC administration. For this reason, this genetically modified mouse model is not suitable for use in therapeutic experiments. Thus, an attempt was made to establish a transplant model. […] It should be noted that inflammatory cells migrating to the tumor tissue were composed of donor mouse-derived cells and host mouse-derived cells in admixture.
Donor mouse swollen lymph node-derived cells (2×10^7 cells) were all intraperitoneally injected into nude mice and, after 2 weeks (after lymph node swelling was observed by echography in some mice), 5 mg/kg of dasatinib dissolved in a solution of propylene glycol:distill water adjusted to 1:1 was orally administered to the mice for successive 14 days (the dasatinib group: “Dasatinib” in FIG. 17). As a control, nude mice under completely the same conditions were administered with the same volume of the solution alone (propylene glycol: distill water=1:1) according to the same schedule (the control group: “Vehicle” in FIG. 17). The results of these administration experiments are show in FIG. 17.

phosphorylated VAV1 = assay: Anti-phosphorylated VAV1 staining of swollen lymph node sections of AITL transplant model mice; type: in vivo, mouse; settings: nude mice; dasatinib three times daily for 2 days, 2 weeks after cell injection; sacrificed on the following day
Description: In addition, donor mouse swollen lymph node-derived cells (2×10^7 cells) were all intraperitoneal injected into nude mice and, after 2 weeks, dasatinib or a control solution was administered three times daily for 2 days in accordance with the above procedure. On the following day, the nude mice were sacrificed, and thin section specimens were prepared from their swollen lymph nodes and then stained with anti-phosphorylated VAV1 antibody.

[5] = 5 mg/kg orally for successive 14 days, FIG. 17

Cc1nc(Nc2ncc(C(=O)Nc3c(C)cccc3Cl)s2)cc(N2CCN(CCO)CC2)n1 [dasatinib, N-(2-chloro-6-methyl-phenyl)-2-[[6-[4-(2-hydroxyethyl)-1-piperazinyl]-2-methyl-4-pyrimidinyl]amino]-5-thiazolecarboxamide]
enhanced Y174 phosphorylation (VAV1) induced by G17V RHOA mutant expression (VAV1 [1]): cancels the enhanced Y174 phosphorylation | enhanced PLC-gamma 1 phosphorylation induced by G17V RHOA mutant expression (PLC-gamma 1): cancels the enhanced PLC-gamma 1 phosphorylation | enhanced interleukin-2 mRNA expression induced by G17V RHOA mutant expression [2]: cancels the enhanced interleukin-2 mRNA expression | enhanced Y174 phosphorylation induced by VAV1 mutant expression (VAV1 [3]): cancels the enhanced Y174 phosphorylation | enhanced NFAT activity induced by VAV1 mutant expression (NFAT activity): cancels the enhanced NFAT activity | mice showing progression of lymphoma (body weight loss and hyposthenia) ([4]; 5 mg/kg orally for successive 14 days starting 2 weeks after cell injection, observation period of 150 days, 6/18): 33.3% | progression of lymphoma versus control group [4, 5]: progression was significantly suppressed | survival versus control group [4, 5]: survival was prolonged | phosphorylated VAV1 staining in swollen lymph nodes (phosphorylated VAV1): phosphorylated VAV1 was not stained

From patent US11058685B2, “Therapeutic agent for tumors identified by phosphorylation of proto-oncogene protein belonging to VAV family” (priority 2016, dated 2021)
